The compounds below were run against T1, 5-hydroxytryptamine receptor 1A (Homo sapiens, UniProt P08908) (assay: Agonist activity at human 5HT1A receptor expressed in CHOK1 cells incubated for 16 hrs followed by forskolin-stimulation and measured after 2 hrs by dual-glo luciferase reporter gene assay).
T1 sequence (P08908 whole entry): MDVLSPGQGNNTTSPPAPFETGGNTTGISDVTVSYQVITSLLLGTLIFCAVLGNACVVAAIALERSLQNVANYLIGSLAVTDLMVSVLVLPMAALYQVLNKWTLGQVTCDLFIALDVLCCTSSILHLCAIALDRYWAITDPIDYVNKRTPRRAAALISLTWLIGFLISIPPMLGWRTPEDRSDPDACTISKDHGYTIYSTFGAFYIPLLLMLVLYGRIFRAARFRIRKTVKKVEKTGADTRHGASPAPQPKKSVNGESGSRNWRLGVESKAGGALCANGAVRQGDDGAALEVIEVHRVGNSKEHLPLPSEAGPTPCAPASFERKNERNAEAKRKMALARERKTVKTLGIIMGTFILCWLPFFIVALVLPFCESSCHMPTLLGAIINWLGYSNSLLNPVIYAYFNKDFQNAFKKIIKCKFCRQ
Format: cell-based

Compound	EC50 [µM]
C/C=C1/C[N+]2([O-])CCc3c([nH]c4ccccc34)[C@@H]2C[C@@H]1/C(=C\OC)C(=O)OC (stereo partly drawn)	> 100
C=C[C@H]1[C@H](O[C@@H]2O[C@H](CO)[C@@H](O)[C@H](O)[C@H]2O)OC=C2C(=O)N3CCc4c([nH]c5ccccc45)[C@H]3C[C@H]21	> 100
C=C[C@H]1CN2CCc3c([nH]c4ccccc34)[C@@H]2C[C@@H]1/C(=C\OC)C(=O)OC	> 100
C=C[C@H]1CN2CCc3c([nH]c4ccccc34)[C@H]2C[C@@H]1[C@@H](CO)C(=O)OC	0.1
C=C[C@H]1CN2CC[C@@]3(C(=O)Nc4ccccc43)[C@@H]2C[C@@H]1/C(=C\OC)C(=O)OC [ISOCORYNOXEINE]	> 100
C/C=C1\C[N@@+]2([O-])CCc3c([nH]c4ccccc34)[C@@H]2C[C@@H]1[C@H](CO)C(=O)OC	11.4
COC(=O)C1=CO[C@@H](O[C@@H]2O[C@H](CO)[C@@H](O)[C@H](O)[C@H]2O)[C@@H]2[C@@H]3CN4CCc5c([nH]c6ccccc56)[C@]4(C[C@H]12)O3	10.2
CC[C@H]1CN2CCc3c([nH]c4ccccc34)[C@H]2C[C@@H]1[C@@H](CO)C(=O)OC	2.2
C=C[C@H]1CN2CCc3c([nH]c4ccccc34)[C@H]2C[C@@H]1[C@H](CO)C(=O)OC	54.4
CC[C@H]1CN2CC[C@@]3(C(=O)Nc4ccccc43)[C@@H]2C[C@@H]1/C(=C\OC)C(=O)OC [ISORHYNCHOPHYLLINE]	2
CC[C@H]1C[N+]2([O-])CCc3c([nH]c4ccccc34)[C@H]2C[C@@H]1/C(=C\OC)C(=O)OC (stereo partly drawn)	> 100
CC[C@H]1CN2CCc3c([nH]c4ccccc34)[C@H]2C[C@@H]1[C@H](CO)C(=O)OC	> 100
CC[C@H]1CN2CC[C@]3(C(=O)Nc4ccccc43)[C@@H]2C[C@@H]1/C(=C\OC)C(=O)OC [RHYNCHOPHYLLINE]	10.3
CC[C@H]1CN2CCc3c([nH]c4ccccc34)[C@H]2C[C@H]1/C(=C\OC)C(=O)OC	> 100
COC(=O)C1=CO[C@@H](O[C@@H]2O[C@H](CO)[C@@H](O)[C@H](O)[C@H]2O)[C@H]2[C@@H]1C[C@H]1c3[nH]c4ccccc4c3CCN1C[C@@H]2O	1.6
C=C[C@H]1CN2CC[C@]3(O[C@@H]2C[C@@H]1/C(=C\OC)C(=O)OC)C(=O)Nc1ccccc13	10.1
COC(=O)C1=CO[C@@H](C)[C@@H]2CN3CCc4c([nH]c5ccccc45)[C@@H]3C[C@H]12 [TETRAHYDROALSTONINE]	> 100
CC[C@H]1C[N@+]2([O-])CCc3c([nH]c4ccccc34)[C@H]2C[C@H]1/C(=C\OC)C(=O)OC	> 100
C=C[C@H]1[C@H](O[C@@H]2O[C@H](CO)[C@@H](O)[C@H](O)[C@H]2O)OC=C2C(=O)N3CCc4c([nH]c5ccccc45)[C@@H]3C[C@H]21	> 100
C=C[C@H]1CN2CC[C@]3(O)C(=Nc4ccccc43)[C@H]2C[C@@H]1/C(=C\OC)C(=O)OC	> 100
C/C=C1\CN2CCc3c([nH]c4ccccc34)[C@H]2C[C@@H]1/C(=C\OC)C(=O)OC	> 100
C=C[C@H]1C[N@@+]2([O-])CCc3c([nH]c4ccccc34)[C@H]2C[C@@H]1[C@@H](CO)C(=O)OC	> 500
C=C[C@H]1C[N@@+]2([O-])CCc3c([nH]c4ccccc34)[C@H]2C[C@@H]1/C(=C\OC)C(=O)OC	85

From ChEMBL document CHEMBL4414667, “Uncarialins A-I, Monoterpenoid Indole Alkaloids from Uncaria rhynchophylla as Natural Agonists of the 5-HT1A Receptor” (J Nat Prod, 2019)
